Publication PMC6152005, “Fluorination of Naturally Occurring N^6-Benzyladenosine Remarkably Increased Its Antiviral Activity and Selectivity” (Molecules : A Journal of Synthetic Chemistry and Natural …, 2017)

What was measured:
EV71 strain BrCr = assay: Cytopathic effect (CPE) reduction antiviral assay against EV71 in RD cells (MTS/PMS readout); format: cell-based, human enterovirus 71; details: for EC50: Enterovirus A, EV71 BrCr in RD cells, inhibition of virus-induced cell death, MTS/PMS, at least three independent dose-response curves; for SI (Selectivity Index): SI = CC50/EC50; for SI (Selectivity Index) / increase of SI relative to BAPR: EV71 BrCr, RD cells
Protocol: (§1) (Table 2). As previously mentioned, modifications of the N^6-substituent (linker) of the BAPR scaffold led to a remarkable increase of selectivity. Here, we produced a series of BAPR analogues to evaluate the effect of the fluorination of BAPR on the replication of EV71. A cytopathic effect (CPE) reduction assay was performed with the newly synthetized analogues (compounds 5–11) in rhabdomyosarcoma (RD) cells. BAPR, N^6-isopenthenyladenosine, and N^6-furfuryladenosine were included in the screening, and the toxicity of all of the aforementioned compounds was evaluated in parallel on treated-uninfected cells.
An EV71 BrCr laboratory-adapted strain was used at a low multiplicity of infection (MOI) in a standardized antiviral assay. Briefly, freshly harvested rhadbdosarcoma (RD) cells were seeded in a 96-well plate (2 × 10^4 cells/well) and incubated at 37 °C in 5% CO2. The next day, a serial dilution of the compounds was prepared in assay medium and added to the RD cells. Then, the cells were supplemented with the viral suspension. […] Subsequently, the antiviral effect was quantified using a colorimetric readout with 3-(4,5-dimethylthiazol-2-yl)-5-(3-carboxymethoxyphenyl)-2-(4-sulfophenyl)-2H-tetrazolium/phenazine methosulfate (MTS/PMS method), and the concentration of compound at which a 50% inhibition of virus-induced cell death would be observed (EC50) was calculated from the antiviral dose-response curves. A similar assay setup was used to determine the adverse effect of the compound on uninfected, treated cells for the calculation of the CC50 (concentration of compound that reduces overall cell health with 50% as determined by the MTS/PMS method). […]

[1] = Toxicity on treated, uninfected RD cells (MTS/PMS readout); format: cell-based; details: human, uninfected rhabdomyosarcoma (RD) cells, uninfected, treated RD cells; MTS/PMS; at least three independent dose-response curves
Protocol: as §1
(§2) An EV71 BrCr laboratory-adapted strain was used at a low multiplicity of infection (MOI) in a standardized antiviral assay. Briefly, freshly harvested rhadbdosarcoma (RD) cells were seeded in a 96-well plate (2 × 10^4 cells/well) and incubated at 37 °C in 5% CO2. The next day, a serial dilution of the compounds was prepared in assay medium and added to the RD cells. Then, the cells were supplemented with the viral suspension. […] Subsequently, the antiviral effect was quantified using a colorimetric readout with 3-(4,5-dimethylthiazol-2-yl)-5-(3-carboxymethoxyphenyl)-2-(4-sulfophenyl)-2H-tetrazolium/phenazine methosulfate (MTS/PMS method), and the concentration of compound at which a 50% inhibition of virus-induced cell death would be observed (EC50) was calculated from the antiviral dose-response curves. A similar assay setup was used to determine the adverse effect of the compound on uninfected, treated cells for the calculation of the CC50 (concentration of compound that reduces overall cell health with 50% as determined by the MTS/PMS method). The selectivity index (SI) was calculated as a ratio of […].

[2] = test system: rhabdomyosarcoma (RD) cells; assay: as above; format: cell-based; details: for cytotoxicity (in words): uninfected RD cells, highest concentration tested
Protocol: as §1, §2

SMILES | EC50 (EV71 strain BrCr) | SI (Selectivity Index) (EV71 strain BrCr) | CC50 [1] | cytotoxicity (in words) [2] | CC50 ([2]; uninfected, treated RD cells, MTS/PMS, at least three independent dose-response curves) | increase of SI relative to BAPR (EV71 strain BrCr; relative to BAPR) | improvement (gain) in potency as compared to BAPR (EV71 strain BrCr; EV71 replication in RD cells, relative to BAPR)
CC(C)=CCNc1ncnc2c1ncn2[C@@H]1O[C@H](CO)[C@@H](O)[C@H]1O [Compound 2, N^6-isopenthenyladenosine, reference compound] | 1000 ± 200 nM | 6.0 | 6000 ± 600 nM |  |  |  | 
OC[C@H]1O[C@@H](n2cnc3c(NCc4ccccc4C(F)(F)F)ncnc32)[C@H](O)[C@@H]1O [Compound 9, N^6-(2-trifluoromethylbenzyl) adenosine] | 1000 ± 100 nM | >235 | > 235000 nM | did not show any cytotoxicity |  |  | 
OC[C@H]1O[C@@H](n2cnc3c(NCc4ccccc4F)ncnc32)[C@H](O)[C@@H]1O [Compound 5, N^6-(2-fluorobenzyl) adenosine] | 300 ± 50 nM | 44 | 13300 ± 3700 nM |  |  |  | 
OC[C@H]1O[C@@H](n2cnc3c(NCc4c(F)cccc4F)ncnc32)[C@H](O)[C@@H]1O [Compound 8, N^6-(2,6-difluorobenzyl) adenosine] | 210 ± 10 nM | >1210 | > 250000 nM |  | > 254000 nM |  | 
OC[C@H]1O[C@@H](n2cnc3c(NCc4ccc(F)cc4)ncnc32)[C@H](O)[C@@H]1O [Compound 7, N^6-(4-fluorobenzyl) adenosine] | 140 ± 50 nM | 19 | 2700 ± 900 nM |  |  | 1.25 times | 
OC[C@H]1O[C@@H](n2cnc3c(NCc4ccccc4)ncnc32)[C@H](O)[C@@H]1O [Compound 1, N^6-benzyladenosine] | 280 ± 50 nM | 15 | 4300 ± 1600 nM |  |  |  | 
OC[C@H]1O[C@@H](n2cnc3c(NCc4ccc(C(F)(F)F)cc4)ncnc32)[C@H](O)[C@@H]1O [Compound 11, N^6-(4-trifluoromethylbenzyl) adenosine] | 1000 ± 100 nM | >235 | > 235000 nM | did not show any cytotoxicity |  |  | 
OC[C@H]1O[C@@H](n2cnc3c(NCc4ccco4)ncnc32)[C@H](O)[C@@H]1O [Compound 3, N^6-furfuryladenosine, reference compound] | 1400 ± 300 nM | 5.6 | 7800 ± 3400 nM |  |  |  | 
OC[C@H]1O[C@@H](n2cnc3c(NCc4cccc(C(F)(F)F)c4)ncnc32)[C@H](O)[C@@H]1O [Compound 10, N^6-(3-trifluoromethylbenzyl) adenosine] | 68 ± 1 nM | >3456 | > 235000 nM | did not show any cytotoxicity |  | 230 times | four-fold
OC[C@H]1O[C@@H](n2cnc3c(NCc4cccc(F)c4)ncnc32)[C@H](O)[C@@H]1O [Compound 6, N^6-(3-fluorobenzyl) adenosine] | 240 ± 90 nM | 26 | 6200 ± 1800 nM |  |  |  | 
